Type in all cases: cell-based
Test [1] has as its system L. braziliensis promastigote forms. The test can be described thus: In vitro activity against promastigote forms. The conditions noted are these: for Selectivity Index Promastigote Forms: J774.2 Macrophage IC50/Parasite IC50; for IC50: 48 h, 27 °C, means of three separate experiments, read-out: Compound IC50 Promastigote Forms. The protocol: (§1) Three Leishmania species were studied, each one as a pathogenic agent for each clinical form: L. donovani for VL, L. infantum for CL, and L. braziliensis for ML.
(§2) In order to perform this experiment, promastigotes were harvested in 24-well microplates and different drug concentrations were added in order to reach 12.5, 25, 50, and 100 µM and maintained at 27 °C for 48 h. They were counted after that time was elapsed in a Neubauer haemocytrometric chamber.

The subject of test [2] is L. donovani promastigote forms. The test can be described thus: In vitro activity against promastigote forms. The conditions noted are these: for Selectivity Index Promastigote Forms: J774.2 Macrophage IC50/Parasite IC50; for IC50: 48 h, 27 °C, means of three separated experiments, read-out: Compound IC50 Promastigote Forms. As for the experimental part: as §1, §2
Test [3] deals with L. infantum promastigote forms. The test can be described thus: In vitro activity against promastigote forms. Conditions: for Selectivity Index Promastigote Forms: J774.2 Macrophage IC50/Parasite IC50; for IC50: 48 h, 27 °C, means of three separate experiments, read-out: Compound IC50 Promastigote Forms. As for the experimental part:
as §1, §2

In test [4] the test system is L. braziliensis amastigote forms. The test can be described thus: In vitro activity against amastigote forms in J774.2 macrophages. Conditions: for Selectivity Index Amastigote Forms: J774.2 Macrophage IC50/Parasite IC50; for IC50: in J774.2 macrophages, means of three separate experiments, read-out: Compound IC50 Amastigote Forms. The protocol: (§3) A similar method was used for the amastigote assay. First, J774.2 macrophages were harvested in 24-well microplates with round coverslips at the bottom, where cells will attach. Once cells are fixated, they are infected with promastigotes (10 per each macrophage cell) and compounds were added to reach the same final concentrations as in the previous experiment. After one day, promastigotes transform into amastigotes and microplates are maintained for two days at 37 °C. Once that time is elapsed, coverslips are collected and fixated to a microscope slide and dyed with Giemsa. Amastigotes are then counted using a microscope from a total of 200 random macrophages.

Test [5] relates to L. infantum amastigote forms. Described as above. Conditions: for Selectivity Index Amastigote Forms: J774.2 Macrophage IC50/Parasite IC50; for IC50: in J774.2 macrophages, means of three separate experiments, read-out: Compound IC50 Amastigote Forms. The protocol: as §3
Test [6] relates to J774.2 macrophage cell line. Kind of test: Macrophage cytotoxicity. The conditions noted are these: J774.2 macrophages, means of three separate experiments, read-out: Macrophage Toxicity IC50. The source says:
Macrophages are cells naturally infected by Leishmania parasites. For that reason, they were used as host cell models, specifically the J774.2 macrophage cell line [European Collection of Authenticated Cell Cultures (ECACC) number 91051511]. Cells were used to test the cytotoxicity of the new compound (establishing IC50 via testing different drug concentrations on cells) and they were used for parasite infectivity assays.

For test [7], the system named is L. braziliensis. The test can be described thus: Infectivity assay in J774.2 macrophages. The conditions noted are these: test dosage IC25, 10 days. The source says: Following a similar method as the described one in the amastigote experiment, macrophages were harvested and infected with promastigotes in their stationary phase. The test dosage was IC25 for this experiment. The coverslips were collected every 2 days for 10 days and counted in order to determine if drugs affected promastigote infection and amastigote division within the cells by measuring the infection rate (percentage of infected cells) and amastigote number per infected cell.

The subject of test [8] is L. braziliensis. The test can be described thus: Metabolite excretion (1H-NMR of supernatants). The conditions noted are these: IC25, 72 h, vs untreated. An excerpt: (§4) Active compounds can trigger metabolic alterations within parasite mitochondria. Those alterations can be proven by observing alterations in the excreted metabolites quantity. Trypanosomatids excrete different metabolites to the medium in order to get rid of the carbonate skeleton instead of oxidizing glucose to CO2 and water as vertebrates do. Each metabolite is produced in a certain area of the mitochondrion and by a certain enzyme, thus, it can be inferred that these particular zones or enzymes are being affected by drug action. For this experiment, cultures of each species with an initial concentration of 5 × 10^5 cells/mL were stored at 27 °C for 72 h with IC25 as the test dosage. After this time elapsed, cultures were centrifuged at 400× g for 10 min and supernatants were collected and examined by ^1H-NMR.

The next test concerns L. infantum. The test can be described thus: Metabolite excretion (1H-NMR of supernatants). The conditions noted are these: IC25, 72 h, vs untreated.
Text: as §4

The test system of test [9] is L. donovani amastigote forms. Kind of test: In vitro activity against amastigote forms in J774.2 macrophages. The conditions noted are these: for Selectivity Index Amastigote Forms: J774.2 Macrophage IC50/Parasite IC50; for IC50: in J774.2 macrophages, means of three separated experiments, read-out: Compound IC50 Amastigote Forms. The protocol: as §3
The next test relates to L. donovani. Kind of test: Metabolite excretion (1H-NMR of supernatants). Conditions: IC25, 72 h, vs untreated.
Text: as §4

Read-outs that look alike come from different tables or passages of the source.

By IC50 is commonly meant the concentration at which inhibition is half-maximal. Consider `c1c2n[nH]c1CNCCNCCCNCCNC2` [PZ232], for which the entries for the “Selectivity Index Promastigote Forms” value in test [1], in test [2] and in test [3] were 116, 27 and 52, respectively. The IC50 in test [1] (Leishmania braziliensis) is 5.8 ± 0.2 µM; in test [2] (Leishmania donovani), 25 ± 0.8 µM; in test [3] (Leishmania infantum), 13 ± 0.4 µM; in test [4] (Leishmania braziliensis), 1.6 ± 0.6 µM; in test [5] (Leishmania infantum) it was 4.9 ± 0.4 µM; in test [6] (Mus musculus), 674 ± 66.3 µM. Besides, the “Selectivity Index Amastigote Forms” value was 421 in [4] and 138 in test [5]. Moreover, in the test with L. braziliensis [7], the “Amastigote number/infected cell, percentage in plot key (reduction vs control)” value is given as 32.4%. The results for the “Acetate production and excretion variation” value with L. braziliensis [8] and with L. infantum were -38.64% and -11.80%, respectively. For the same compound, the results for the “D-lactate production and excretion variation” value with L. braziliensis [8] and with L. infantum were -38.98% and -11.58%, respectively. In addition, the “L-alanine production and excretion variation” value was -37.91% in the test on L. braziliensis [8] and -13.15% in the test with L. infantum. Also, the “Pyruvate production and excretion variation” value is on record as -35.69% in the test on L. braziliensis [8] and -14.03% in the test with L. infantum. Also, the “Succinate production and excretion variation” value in the test with L. braziliensis [8] is listed as -37.83%; in the test on L. infantum it was -16.36%.

With `c1cc2cc(c1)CNCCNCCCNCCNC2` [mB232], the “Selectivity Index Promastigote Forms” value came out at 7 in test [1], 4 in test [2] and 3 in test [3]. The IC50 in test [1] (Leishmania braziliensis) was found to be 91.7 ± 3.7 µM; in test [2] (Leishmania donovani) it was 171 ± 10.4 µM; in test [3] (Leishmania infantum), 205 ± 30.7 µM; in test [6] (Mus musculus) it was 667 ± 88.5 µM.

Take `c1cc2nc(c1)CNCCCNCCCNCCCNC2` [Py333]: the entries for the “Selectivity Index Promastigote Forms” value in test [1], in test [2] and in [3] were 12, 1549 and 10, respectively. Besides, the IC50 in [1] (Leishmania braziliensis) was 26.2 ± 1.1 µM; in test [2] (Leishmania donovani), 0.2 µM; in test [3] (Leishmania infantum), 30.4 ± 1.4 µM; in test [9] (Leishmania donovani) it was 16.8 ± 0.5 µM; in test [6] (Mus musculus), 310 ± 43.8 µM. Moreover, the “Selectivity Index Amastigote Forms” value in [9] worked out at 18.

Regarding `c1cc2cc(c1)CNCCCNCCNCCNCCCNC2` [mB3223], the results for the “Selectivity Index Promastigote Forms” value in test [1], in [2] and in test [3] were 93, 11 and 23, respectively. For the same compound, the IC50 in test [1] (Leishmania braziliensis) came out at 15.6 ± 0.7 µM; in [2] (Leishmania donovani), 126 ± 3.8 µM; in test [3] (Leishmania infantum), 63.4 ± 2.4 µM; in [6] (Mus musculus), 1450 ± 89.7 µM.

Consider `c1cc2cc(c1)CNCCCNCCNCCCNC2` [mB323, 3,7,10,14 Tetraaza-1(2,6)-benzenacyclopentadecaphane], for which the “Selectivity Index Promastigote Forms” value in test [1] worked out at 186; in test [2] it was 3; in test [3], 4. Also, the IC50 came out at 2.3 ± 0.5 µM in [1] (Leishmania braziliensis); 158 ± 7.3 µM in [2] (Leishmania donovani); 95.6 ± 4.8 µM in [3] (Leishmania infantum); 17.1 ± 1.1 µM in test [4] (Leishmania braziliensis); 428 ± 22.6 µM in [6] (Mus musculus). Besides, in [4], the “Selectivity Index Amastigote Forms” value amounted to 25.

For the compound `c1cc2cc(c1)CNCCCNCCCNCCCNC2` [mB333, 3,7,11,15 Tetraaza-1(2,6)-benzenacyclohexadecaphane], the results for the “Selectivity Index Promastigote Forms” value in test [1], in test [2] and in test [3] were 4, 9 and 11, respectively. Further, the IC50 in [1] (Leishmania braziliensis) was 210 ± 5.3 µM; in test [2] (Leishmania donovani), 106 ± 7.5 µM; in test [3] (Leishmania infantum), 86.1 ± 3.7 µM; in [6] (Mus musculus), 916 ± 51.6 µM.

Regarding Glucantime [reference compound], the IC50 was 51.4 ± 2.5 µM in [1]; 23.7 ± 0.8 µM in test [2]; 50.1 ± 2.3 µM in test [3]; 103 µM in [4]; 76.4 ± 4.1 µM in test [9]; 84.6 ± 4.3 µM in test [5]. Moreover, in test [6], the IC50 was 176 ± 10.6 µM. For the same compound, the results for the “Selectivity Index Promastigote Forms” value in test [1], in test [2] and in [3] were 3, 7 and 3.5, respectively. Besides, the results for the “Selectivity Index Amastigote Forms” value in test [4], in test [9] and in test [5] were 1.7, 2 and 2, respectively.

In the case of `c1cc2nc(c1)CNCCCNCCNCCNCCCNC2` [Py3223], the “Selectivity Index Promastigote Forms” value was 1 in [1], 3 in test [2] and 1 in test [3]. Further, the IC50 is 291 ± 3.8 µM in test [1] (Leishmania braziliensis), 52.5 ± 2.1 µM in test [2] (Leishmania donovani), 192 ± 5.8 µM in test [3] (Leishmania infantum) and 165 ± 4.9 µM in test [6] (Mus musculus).

For `c1c2n[nH]c1CNCCCNCCCNCCCNC2` [PZ333], the “Selectivity Index Promastigote Forms” value in test [1] was determined as 63; in test [2] it was 704; in test [3], 14. Moreover, the IC50 was determined as 15.7 ± 0.5 µM in test [1] (Leishmania braziliensis); 1.4 ± 0.3 µM in test [2] (Leishmania donovani); 70 ± 0.7 µM in [3] (Leishmania infantum); 1.7 ± 0.5 µM in test [9] (Leishmania donovani); 985 ± 72.8 µM in test [6] (Mus musculus). For the same compound, the “Selectivity Index Amastigote Forms” value in test [9] is recorded as 579. In addition, the “Acetate production and excretion variation” value in the test on L. donovani is on record as 33.66%. Also, in the test with L. donovani, the “D-lactate production and excretion variation” value is given as 29.85%. For the same compound, the “L-alanine production and excretion variation” value with L. donovani was determined as 32.65%. Besides, the “Pyruvate production and excretion variation” value in the test with L. donovani worked out at 37.88%. For the same compound, the “Succinate production and excretion variation” value in the test with L. donovani came to 42.10%.

On to `c1cc2nc(c1)CNCCCNCCNCCCNCCNCCCNC2` [Py32323], for which the IC50 was determined as 1630 ± 76.4 µM in test [1] (Leishmania braziliensis), 130 ± 9.5 µM in test [2] (Leishmania donovani), 90.6 ± 3.8 µM in test [3] (Leishmania infantum) and 85.4 ± 4.6 µM in test [6] (Mus musculus). For the same compound, the “Selectivity Index Promastigote Forms” value in test [2] and in [3] was 1 in each case.

As for `c1cc2nc(c1)CNCCCNCCCCNC2` [Py34], the “Selectivity Index Promastigote Forms” value in test [1] came to 19; in [2], 20; in [3], 10. Besides, the IC50 was 29.2 ± 0.8 µM in test [1] (Leishmania braziliensis), 28.4 ± 0.6 µM in [2] (Leishmania donovani), 56.7 ± 2.6 µM in [3] (Leishmania infantum) and 569 ± 45.8 µM in [6] (Mus musculus).

On to `c1cc2ccc1CNCCNCCCNCCNC2` [pB232], for which the “Selectivity Index Promastigote Forms” value is listed as 26 in [1], 1 in test [2] and 2 in test [3]. Besides, the IC50 in test [1] (Leishmania braziliensis) amounted to 27.2 ± 0.9 µM; in [2] (Leishmania donovani), 743 ± 23.6 µM; in [3] (Leishmania infantum) it was 367 ± 10.5 µM; in test [6] (Mus musculus), 719 ± 20.5 µM.

Take `c1cc2nc(c1)CNCCCNCCNCCNCCNCCCNC2` [Py32223]: the IC50 is 442 ± 5.8 µM in test [1] (Leishmania braziliensis), 1000 ± 78.4 µM in test [2] (Leishmania donovani), 93.4 ± 3.7 µM in test [3] (Leishmania infantum) and 57.7 ± 1.9 µM in test [6] (Mus musculus). The “Selectivity Index Promastigote Forms” value in test [3] is reported as 1.

Consider `c1cc2nc(c1)CNCCCNCCCNCCNCCCNCCCNC2` [Py33233], for which the results for the “Selectivity Index Promastigote Forms” value in test [1], in [2] and in test [3] were 3, 2 and 3, respectively. For the same compound, the IC50 in test [1] (Leishmania braziliensis) was determined as 507 ± 8.3 µM; in test [2] (Leishmania donovani) it was 583 ± 6.9 µM; in [3] (Leishmania infantum), 484 ± 10.7 µM; in test [6] (Mus musculus), 1290 ± 77.5 µM.

Source of the values: paper PMC10059905, “The Bioactivity of Xylene, Pyridine, and Pyrazole Aza Macrocycles against Three Representative Leishmania Species” (Pharmaceutics, 2023).
